Laboratory results as given in patent US5200338A, “Bacterial extracellular lignin peroxidase” (Idaho Research Foundation, Incorporation, priority 1988, dated 1993).

Assays:
[1] = system: partially purified peroxidase; assay: Oxidation of lignin substructure model compounds by partially purified peroxidase; type: biochemical, Streptomyces viridosporus T7A; conditions: 0.02% (wt/vol) model compound, hydrogen peroxide, pH 5.5, 37° C., 18 hours
Experimental: The model compounds were added to reaction mixtures at a final concentration of 0.02% (wt/vol). Reactions were carried out in a total volume of 3.0 ml, containing 0.1 mM hydrogen peroxide or a peroxide generating system consisting of 0.02 units/ml of glucose oxidase (Sigma) and 3 mM glucose 0.1M sodium tartrate buffer (pH 5.5) and 300 μl of enzyme preparation. Control reactions were performed with boiled enzyme preparation. Some reaction mixtures were flushed with oxygen and all were incubated at 37° C. for 18 hours on a shaker in slanting tubes. The reaction mixtures were then acidified to pH 2-3 with 12M HCl and extracted once with ether and once with ethyl acetate. […]
HPLC was performed on a Hewlett-Packard 1090A high pressure liquid chromatograph employing a HP-1040A diode array detector. During each run, chromatograms for 258, 280, and 310 nm were recorded and the ultraviolet (UV) absorbance spectrum (250-350 nm) of each peak was recorded at its front side, apex, and trailing side. […]
Only veratraldehyde, anisaldehyde and vanillin were detected by HPLC, GC, and GC/MS. Guaiacol, formed in trace amounds, was detected by HPLC, GC, and GC/MS. Small amounts of products (IV) and (V) were detected only by MS fragmentation. […]

Peroxidase P3 [2] = system: Peroxidase P3
Experimental: Peroxidase activity was routinely assayed with 2,4-dichlorophenol (2,4-DCP) (Sigma) as substrate. A final volume of 1.0 ml of reaction mixture contained 100 mM sodium succinate buffer (pH 5.5), 82 mM 4-aminoantipyrine(Sigma), 1.0 mM 2,4-dichlorophenol, 4.0 mM hydrogen peroxide and 100 μl of enzyme preparation. The reaction was initiated by the addition of hydrogen peroxide and the increase in A510 was monitored for one minute at 37° C. One unit of enzyme was expressed as the amount of enzyme required for an increase of 1.0 absorbance unit per min.

Peroxidase P3 [3] = conditions: inhibitor at final concentration lmM
Experimental: Enzyme activity was also assayed using L-3,4-dihydroxyphenylalanine (L-DOPA; Sigma) as substrate.

With `COc1ccc(C(O)C(CO)Oc2ccccc2OC)cc1OC` (stereo not shown) [I, 1-(3,4-Dimethoxyphenyl)-2-(2-methoxyphenoxy)propane-1,3-diol] the “Oxidation of the model compound by the peroxidase (bond cleaved)” value [1] was “cleaved at the Cα -Cβ bond”.

For `COc1ccc(C(=O)Cc2ccccc2)cc1` [III, 1-(4-methoxyphenyl)-2-(phenyl)ethan-1-one], the “Oxidation of the model compound by the peroxidase (bond cleaved)” value [1] was “cleaved between the Cαand Cβcarbons”.

`[N-]=[N+]=[N-]` [sodium azide] was tested, and the “Inhibition of the enzyme (2,4-DCP and L-DOPA oxidizing activities), in words” value (Peroxidase P3 [2]; 1 mM concentration) was “inhibited”, the “% inhibition of peroxidase P3 activity, substrate 2,4,-DCP” value (Peroxidase P3 [2]; inhibitor at final concentration lmM) was 83% and the “Specific activity, substrate 2,4,-DCP, with inhibitor” value (Peroxidase P3 [2]; inhibitor at final concentration lmM, partially purified P3) was 0.18 Units/mg protein. For the same molecule, the “% inhibition of peroxidase P3 activity, substrate L-DOPA” value (Peroxidase P3 [3]) was 41% and the “Specific activity, substrate L-DOPA, with inhibitor” value (Peroxidase P3 [3]; partially purified P3) was 0.18 Units/mg protein.
